Measured values: US20220213156A1, “Peptides for use in therapy or prophylaxis of Herpesviridae-infections” (priority 2019, published 2022)
Residues, ends and D or L forms follow the SMILES beside them.

Assays:
[1] = tested on: HCMV TB40/E-ΔUL16-eGFP; experiment: Infection assay on different cell types (HFF, ARPE-19, THP-1) with TB40E-ΔUL16-EGFP, IE+/DAPI+; type: cell-based, Human Cytomegalovirus; details: 40 h
Protocol: For the infection assays, the cells were sown in 96-well plates. Human foreskin fibroblasts (HFF) and ARPE-19 cells (Adult Retinal Pigment Epithelial cell line-19) were seeded with 10 000 cells in 200 μl medium per well, macrophages with 20 000 cells in 200 μl medium per well and THP with 50 000 cells in 200 μl per well. The cells were incubated overnight at 37° C. and 5% CO2 and treated the following day. A medium change to P/S-free medium was performed to avoid interaction between the antibiotics used and the peptide sequences. Afterwards the corresponding peptides were added in different concentrations and immediately afterwards the virus, the final volume was 100 μl per well. The virus of the strain TB40/E-ΔUL16-eGFP was used. TB40-ΔUL16-eGFP is a derivative of the strain TB40, in which the majority of the open reading frame UL16 has been replaced by the open reading frame of eGFP, essentially as described in detail for a homologous mutant of strain AD169 (Tischer et al., “Two-step red-mediated recombination for versatile high-efficiency markerless DNA manipulation in Escherichia coli”, Biotechniques, (2006), 40(2):191-7). […] The required volume of the virus stock was calculated using the titer according to the following formula: […]

[2] = tested on: HFF, ARPE-19 and macrophages; experiment: Impedance measurement (xCELLigence) toxicity study; type: cell-based, human; details: ARPE-19, macrophages, 72 h impedance
Description: The “xCELLigence” system (ACEA Biosciences Inc.) was used for a more detailed toxicity study. The principle is based on a measurement of the electrical resistance caused by adhesive cells on the bottom of a 96-well plate equipped with microelectrodes. Cell proliferation causes an increase in resistance due to the partial isolation of the electrodes, while events leading to altered cell morphology or cell detachment lead to reduced resistance (Diemert et al. “Impedance measurement for real time detection of neuronal cell death”, J Neurosci Methods, 203(1):69-77, 2012)). The experiments were performed with HFF, ARPE-19 and macrophages, the appropriate cell numbers were determined in a preliminary experiment without treatment with peptides.
On the first day 10 000 HFF or ARPE-19 or 20 000 macrophages per well were sown. […] Then a blank value was measured and the cells were added in corresponding numbers in 150 μl medium each, the final volume was 200 μl per well. The plate was placed in the “xCELLigence” and the impedance was measured at 37° C. and 5% CO2 over 24 h every 30 min. […] Afterwards, the resistance at the bottom of the 96-well plate was measured every 30 min for a further 72 h. The resistance of the tritone was measured with a positive control of 10% tritone. From the measured impedance values, the RTCA software calculated the so-called cell index according to the following formula: […]

C[C@H](N)C(=O)N[C@H](C(=O)N[C@@H](CS)C(=O)N[C@@H](Cc1ccc(O)cc1)C(=O)N[C@@H](CS)C(=O)N[C@@H](CCCNC(=N)N)C(=O)N[C@H](C(=O)NCC(=O)N[C@@H](CCCNC(=N)N)C(=O)O)[C@@H](C)O)[C@@H](C)O [HD5 (1-9), ATCYCRTGR] (H-ATCYCRTGR-OH; N-terminus and C-terminus assumed)
concentration from which HCMV infection is inhibited [1]: ≥ 50 µM
concentration up to which no cytotoxicity is shown [2]: up to 150 μM
